Assay results as given in patent US4459294A, “Phosphoric and thiophosphoric esters of 5(3)-hydroxypyrazoles exerting an insecticidal action” (priority 1977, dated 1984).

Tests used:
Pieris brassicae = test: Biological activity on Pieris brassicae (Lepitoptera), 5-day old larvae; format: in vivo; conditions: 0.1 permill.; 48 hours after treatment
Description: Biological activity on Pieris brassicae (Lepitoptera)
Cut cauliflower leaves were sprinkled with an aqueous dispersion of the products under examination. After drying, the leaves were infested with 5-day old larvae. The percentage death rate of the larvae (untreated leaves=0) was determined 48 hours after treatment.

Spodoptera littoralis = test: Biological activity on Spodoptera littoralis (Lepidoptera), 5-days old larvae; format: in vivo; conditions: 0.1 permill.; 48 hours after treatment
Description: Biological activity on Spodoptera littoralis (Lepidoptera)
Cut tobacco leaves were sprinkled with an aqueous dispersion of the products under examination. After drying, the leaves were infested with 5-days old larvae. The percentage mortality of the larvae was determined 48 hours after treatment (untreated leaves, mortality=0).

Culex pipiens larvae = test: Biological activity on Culex pipiens (diptera) larvae; format: in vivo; conditions: 24 hours after treatment, read-out: percentage of reduction of the infestation (percentage death rate), Culex larvae
Description: Biological activity on Culex pipiens (diptera) larvae
Into glasses containing an aqueous dispersion of the products under examination, were introduced third and fourth age mosquito larvae. The percentage death rate of the larvae (glasses containing pure water=0) was determined 24 hours after treatment.

Culex pipiens adults = test: Biological activity on Culex pipiens (Diptera): adults; format: in vivo; conditions: 0.2 g/m^2, 24 hours after beginning of treatment, read-out: percentage of reduction of the infestation (mortality percentage), Culex ad.
Description: Biological activity on Culex pipiens (Diptera): adults
Whatman n°1 paper rectangles were treated uniformly with an acetonic solution of the products under examination. After evaporation of the solvent, each treated paper rectangle was used to line the inside wall of a perspex cylinder (model OMS). The paper-lined perspex cylinder was then closed with a net after having introduced into it 2-3 days old adult females. After one hour from the start of the contact, the insects were transferred into a similar cylinder likewise lined with untreated paper, and were fed with a sugary solution.
The mortality percentage (untreated insects=0) was determined 24 hours after the beginning of the treatment.

Musca domestica = test: Biological activity on Musca domestica (Diptera), topical application; format: in vivo; conditions: 0.5 γ/ins, 24 hours after treatment
Description: Biological activity on Musca domestica (Diptera)
4-days old adults were treated, by topical application by microsyringe, with an acetonic solution of the products under examination.
The mortality percentage (insects treated with acetone only=0) was determined 24 hours after the treatment.

[1] = system: Leptinatarsa decomlineata; test: Biological activity on Leptinatarsa decomlineata (Coledptera), 4-day old larvae; format: in vivo; conditions: 0.1 permill.; 48 hours after treatment
Description: Biological activity on Leptinatarsa decomlineata (Coledptera)
Small, pot-grown potato-plants were infested with 4-day old larvae, and then were sprinkled with an aqueous dispersion of the products under examination. The percentage death rate (untreated plants=0) was determined 48 hours after treatment.

Macrosiphum euphorbiae = test: Biological activity on Macrosiphum euphorbiae (aphides); format: in vivo; design: tested at 0.01 permill; conditions: 0.01 permill.; 24 hours after treatment
Description: Biological activity on Macrosiphum euphorbiae (aphides)
Small potato plants grown in pots were infested with adult female aphides and, after several hours, were sprinkled with an aqueous dispersion of the products under examination.
The percentage death rate was determined 24 hours after treatment (untreated plants=0).

Tetranychus urticae = test: Biological activity on Tetranychus urticae (Acari) adults; format: in vivo; conditions: 0.01 permill.; 24 hours after treatment
Description: Biological Activity on Tetranychus urticae (Acari) adults
Small bean leaf discs were infected with adult acari and were then sprinkled with an aqueous dispersion of the products under examination. The percentage of mortality was determined 24 hours after the treatment (untreated discs, mortality=0).

Meloidogyne incognita = test: Biological activity on Meloidogyne incognita (Nematoda); format: in vivo; conditions: 20 ppm; 21 days after transplanting
Description: Biological activity on Meloidogyne incognita (Nematoda)
Aliquot parts of a 1:1 mixture of field soil and sand, infested by Nematoda larvae and eggs, were treated by uniformly mixing same with an aqueous dispersion of the products under examination. The soil was then distributed into plastic pots, and after 5 days into each pot there were transplanted 5 tomato plants about 20 cm high. The survey of the results was carried out 21 days after the transplanting, by observing the roots of the plants extracted from the soil in order to ascertain the degree of infestation by counting the galls that have formed on them. The nematocide activity was expressed as a percentage of reduction of the infestation with respect to the witness plant (small plants transplanted into untreated soil, activity=0).

Blatta orientalis = test: Biological activity on Blatta orientalis (Ortoptera); format: in vivo; conditions: 0.1 g/m^2, 48 hours after start of treatment, read-out: percentage of reduction of the infestation (percentage mortality), Blatta
Description: Biological activity on Blatta orientalis (Ortoptera)
The bottom and side walls of glass beakers were treated uniformly with an acetonic solution of the products under examination. After evaporation of the solvent in each beaker, into the same were then introduced ten, 80-100 days old neanides, whereafter they were closed with a lid of metal netting. After 24 hours from the beginning of the treatment, the insects were transferred into untreated glass beakers, and suitably nourished. The percentage mortality (untreated insects=0) was determined 48 hours after the start of the treatment.

Toxicity by os on rats = conditions: rat, in vivo, po
[2] = system: insects, acari and nematoda; test: Pesticidal activity against insects, acari and nematoda (general statements); format: in vivo
Description: The pesticidal activity, verified by the methods described below in Example 12, is recorded below in the following Table 3 in comparison with that of "Pyrazothion".

| SMILES | percentage of reduction of the infestation (percentage death rate of larvae), Pieris B (Pieris brassicae) [%] | percentage of reduction of the infestation (percentage mortality of larvae), Spodoptera L (Spodoptera littoralis) [%] | mortality at 0.2 ppm (Culex pipiens larvae) [%] | mortality at 0.2 g/m2 (Culex pipiens adults) [%] | percentage of reduction of the infestation (mortality percentage), Musca d. (Musca domestica) [%] | percentage of reduction of the infestation (percentage death rate), Leptinot D. [1] [%] | percentage of reduction of the infestation (percentage death rate), Macrosiph. E. (Macrosiphum euphorbiae) [%] | percentage of reduction of the infestation (percentage of mortality), Tetran U. (Tetranychus urticae) [%] | percentage of reduction of the infestation, Meloidog. I. (Meloidogyne incognita) [%] | mortality at 0.1 g/m2 (Blatta orientalis) [%] | LD50 (Toxicity by os on rats) [mg/kg] | activity against Spodoptera, Culex, Musca, Leptinotarsa, Meloidogine incognita ([2]; Spodoptera, Culex, Musca, Leptinotarsa, Meloidogine incognita) | activity against insects, acari and nematoda ([2]; in vivo) |
| --- | --- | --- | --- | --- | --- | --- | --- | --- | --- | --- | --- | --- | --- |
| CCOP(=S)(OCC)Oc1cc(Cl)nn1C(C)C [Compound 5] | 100 | 60 | 100 | 100 | 100 | 100 | 100 | 100 | 90 | 100 | 22 | – | – |
| CCOP(=S)(OC)Oc1cc(Cl)nn1C (stereo not shown) [Compound 23] | 100 | 100 | 100 | 100 | 100 | 100 | 92 | 100 | 100 | 100 | 487 | – | – |
| COP(=S)(OC)Oc1cc(Cl)nn1-c1ccccc1 [Compound 1, O,O-dimethyl-0-(1-phenyl-3-chloropyrazol-5-yl) thiophosphate] | 100 | 100 | 100 | 100 | 100 | 100 | 90 | 60 | 80 | 100 | 400 | – | – |
| CCOP(=S)(OCC)Oc1cc(C=C(Cl)Cl)nn1C [Compound 6] | 100 | 100 | 100 | 76 | 100 | 100 | 100 | 100 | 95 | 100 | 175 | – | – |
| COP(=S)(OC)Oc1cc(Cl)nn1C [Compound 14] | 100 | 82 | 100 | 100 | 100 | 37 | 96 | 100 | 41 | 100 | 560 | – | – |
| CCOP(=S)(OCC)Oc1cc(C)[nH]n1 [Pyrazothion, diethyl-thiophosphoric ester of 3(5)-methyl-5(3)-hydroxypyrazole, reference compound] | 70 | 0 | 0 | 0 | 0 | 0 | 60 | 90 | 0 | 20 | 36 | ineffective | does not shown activity |
| CCOP(=S)(OCC)Oc1cc(Cl)nn1C [Compound 13] | 100 | 100 | 100 | 100 | 100 | 100 | 99 | 100 | 100 | 100 | 25 | – | – |
